From ChEMBL document CHEMBL1152828, “Rare dipeptide and urea derivatives from roots of Moringa oleifera as potential anti-inflammatory and antinociceptive agents” (Eur J Med Chem, 2009)
pIC50: −log10 of the molar value. Activity calls are given as the source filed them. The calls are words filed in the database; no cut-off is given here.

Key:
Blood [1] = assay: Inhibition of LPS-induced IL2 production in rat whole blood at 12.5 to 50 uM by ELISA; format: functional, tissue-based
Mus musculus = assay: Analgesic activity in intracerebrally dosed mouse assessed as increase in time course of latency for thermal stimulation by hotplate test; format: functional, organism-based
[2] = molecular target: Transient receptor potential cation channel subfamily V member 1 (Rattus norvegicus, UniProt O35433); assay: Antagonist activity at TRPV1 in rat DRG neuron assessed as inhibition of calcium uptake; format: functional
Blood [3] = assay: Inhibition of LPS-induced TNFalpha production in rat whole blood at 12.5 to 50 uM by ELISA; format: functional, tissue-based
Blood [4] = assay: Inhibition of LPS-induced IL6 production in rat whole blood at 12.5 to 50 uM by ELISA; format: functional, tissue-based

Sequence of Transient receptor potential cation channel subfamily V member 1 (O35433 whole entry): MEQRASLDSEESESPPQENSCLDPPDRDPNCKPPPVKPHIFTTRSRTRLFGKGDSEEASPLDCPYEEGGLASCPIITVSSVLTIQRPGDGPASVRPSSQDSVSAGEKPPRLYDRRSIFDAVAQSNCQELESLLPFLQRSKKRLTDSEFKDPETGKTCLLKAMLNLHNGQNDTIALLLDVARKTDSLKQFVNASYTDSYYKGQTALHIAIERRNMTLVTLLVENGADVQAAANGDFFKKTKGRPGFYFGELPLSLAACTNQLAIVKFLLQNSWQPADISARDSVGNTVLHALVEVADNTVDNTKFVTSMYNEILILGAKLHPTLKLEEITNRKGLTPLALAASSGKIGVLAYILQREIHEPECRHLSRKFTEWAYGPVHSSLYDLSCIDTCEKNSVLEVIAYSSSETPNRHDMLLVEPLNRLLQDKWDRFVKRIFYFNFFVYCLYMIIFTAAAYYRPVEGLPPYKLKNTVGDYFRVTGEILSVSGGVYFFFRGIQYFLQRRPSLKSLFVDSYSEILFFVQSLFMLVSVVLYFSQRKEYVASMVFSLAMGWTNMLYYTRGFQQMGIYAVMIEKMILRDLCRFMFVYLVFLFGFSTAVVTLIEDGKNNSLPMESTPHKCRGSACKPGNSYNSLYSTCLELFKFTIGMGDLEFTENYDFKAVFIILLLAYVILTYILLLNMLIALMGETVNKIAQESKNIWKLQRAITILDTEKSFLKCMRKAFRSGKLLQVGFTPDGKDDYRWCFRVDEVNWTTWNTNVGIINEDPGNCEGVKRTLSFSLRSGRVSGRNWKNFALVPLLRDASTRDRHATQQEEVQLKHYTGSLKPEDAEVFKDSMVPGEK

| pIC50 [2] | Compound | Activity (Blood [1]) | Activity (Mus musculus) | Activity (Blood [3]) | Activity (Blood [4]) |
| --- | --- | --- | --- | --- | --- |
| 8.00 | O=C(NCc1ccccc1)NCc1ccccc1 | Active | Dose-dependent effect |  |  |
|  | CC(=O)OCC(Cc1ccccc1)NC(=O)C(Cc1ccccc1)NC(=O)c1ccccc1 (configuration not stated) | Active | Dose-dependent effect | Active | Active |
